From US20090227503A1, “PARATHYROID HORMONE TREATMENT FOR ENHANCED ALLOGRAFT AND TISSUE-ENGINEERED RECONSTRUCTION OF BONE DEFECTS” (UNIVERSITY OF ROCHESTER, priority 2008, published 2009)

How the values were obtained:
[1] = system: grafted femurs; experiment: Torsion testing of grafted femurs (Example 4); type: in vivo, mice
Procedure: Four-mm long bone allografts were harvested from donor mice, and were processed and implanted into intecalary defects 195 in the femur of other mice and secured in place using a stainless steel intramedullary pin 190, as shown in FIG. 13. One week after surgery, daily injections of 40 μg/kg hrPTH (1-34) (Lilly, Inc., Indianapolis, Ind.) were initiated in half of the mice, while the others received injections of saline control. Weekly x-rays were taken to monitor progression (Faxitron X-Ray LLC, Wheeling, Ill.).
One cohort of the study groups used 14 mice from each treatment (PTH and control) for imaging and mechanical material testing and were sacrificed 6 weeks after surgery. Each femur was harvested by disarticulating the hip and knee and removing the intramedullary stainless-steel pin. Specimens were moistened with saline and frozen at −20° C. until thawed for micro-CT imaging and torsion testing. Specimens were scanned at […] isotropic resolution using the Scanco VivaCT 40 (Scanco Medical AG, Bassersdorf, Switzerland). From these 3D images, the graft and callus bone volumes (BVGraft, BVCallus) were measured by manual segmentation, followed by standardized thresholding at a grayscale corresponding to 750 mgHA/cm^3. The cross-sectional polar moment of inertias (PMI) were computed for each slice throughout the grafted region and the maximum, minimum and average PMI (PMIMax, PMIMin, PMIAve) were investigated to determine their contribution to the biomechanics of the grafted femurs.
The Union Ratio was also calculated. The Union Ratio measures the graft surface area upon which mineralized callus has formed. If the voxels adjacent to the graft surface are boney callus, the area of that region of the graft is measured and normalized to the total graft surface area. Imaging data (not shown) indicated the bare surface of the graft in blue, with regions of union to the callus depicted as red. Each half (proximal and distal) of the graft was evaluated separately and the lesser ratio of union area to total graft surface area was given as the Union Ratio for that specimen. Callus formation that bridged from host-to-host over the graft was determined by evaluating serial axial cross sections from micro-CT images and given a binary result. These samples were then mechanically tested in torsion. Yield torque (TYield), ultimate torque (TUlt), torsional rigidity (TR), toughness (or work to failure) and the twist at ultimate torque were determined for each specimen. Finally, the mode of failure for each specimen was determined using an x-ray image analysis (not shown).

[2] = system: callus vasculature of grafted femurs; experiment: Callus vascularization by micro-CT after vascular perfusion (Example 4); type: in vivo, mice; conditions: for vessel volume within callus, more in saline treated than PTH treated specimens: not significant, n=4 per group
Procedure: A second cohort of 16 animals underwent the same surgery with sacrifice of 8 animals at 4 weeks and 8 animals at 6 weeks post-surgery to evaluate the degree of vascularization of the graft and callus region using vascular profusion as described previously (Duvall 2004). Half of the animals were treated with PTH, and the other half with saline.
On the day of sacrifice, animals were injected with a fatal dose of ketamine and xylazine and their vasculature was perfused using a syringe pump through a needle placed into the left ventricle of the heart. The right atrium was also punctured to allow the blood to drain out. They were first perfused with heparinized (100 units/ml) saline to prevent blood clotting, followed by 10% neutral-buffered formalin, and lastly with lead-chromate contrast agent (Microfil 122, Flow Tech, Inc. Carver, Mass.). Samples were fixed in 10% formalin overnight followed by harvest of the femur and pin extraction. Samples were micro-CT scanned once after fixation, and again after EDTA decalcification. Using both scans the vasculature was evaluated within the mineralized callus. The vessel volume, thickness, spacing and vessel number was determined.

[3] = PTH Graft, 6 weeks after implantation, mean

CC[C@H](C)[C@H](NC(=O)[C@H](CCC(=O)O)NC(=O)[C@H](CO)NC(=O)[C@@H](NC(=O)[C@@H](N)CO)C(C)C)C(=O)N[C@@H](CCC(N)=O)C(=O)N[C@@H](CC(C)C)C(=O)N[C@@H](CCSC)C(=O)N[C@@H](Cc1cnc[nH]1)C(=O)N[C@@H](CC(N)=O)C(=O)N[C@@H](CC(C)C)C(=O)NCC(=O)N[C@@H](CCCCN)C(=O)N[C@@H](Cc1cnc[nH]1)C(=O)N[C@@H](CC(C)C)C(=O)N[C@@H](CC(N)=O)C(=O)N[C@@H](CO)C(=O)N[C@@H](CCSC)C(=O)N[C@@H](CCC(=O)O)C(=O)N[C@@H](CCCN=C(N)N)C(=O)N[C@H](C(=O)N[C@@H](CCC(=O)O)C(=O)N[C@@H](Cc1c[nH]c2ccccc12)C(=O)N[C@@H](CC(C)C)C(=O)N[C@@H](CCCN=C(N)N)C(=O)N[C@@H](CCCCN)C(=O)N[C@@H](CCCCN)C(=O)N[C@@H](CC(C)C)C(=O)N[C@@H](CCC(N)=O)C(=O)N[C@@H](CC(=O)O)C(=O)N[C@H](C(=O)N[C@@H](Cc1cnc[nH]1)C(=O)N[C@@H](CC(N)=O)C(=O)N[C@@H](Cc1ccccc1)C(=O)O)C(C)C)C(C)C [PTH, PTH (1-34)]
Grafted femur mode of failure after torsion testing: Early Union (number of femurs) ([1]; 6 weeks): 3 | Grafted femur mode of failure after torsion testing: Mature Union (number of femurs) ([1]; 6 weeks): 3 | Grafted femur mode of failure after torsion testing: Pre-Union (number of femurs) ([1]; 6 weeks): 8 | rate of twist at TUlt as fraction of control grafted specimens ([1]; 6 weeks): ⅓ | TR [1, 3]: 1175 N*mm^2/Rad | Tult [1, 3]: 13.2 N*mm | Twist at Tult [1, 3]: 0.020 Rad/mm | Tyield [1, 3]: 10.5 N*mm | Work to TUlt [1, 3]: 0.167 Nmm*Rad/mm | Work to TYield [1, 3]: 0.0687 Nmm*Rad/mm | specimens that failed in a manner not simply graft-pullout from the host ([1]; saline only 3, not statistically significant): Six | Yield Torque, greater by ([1]; vs saline grafted femurs, 6 weeks): 72% | Ultimate Torque, greater by ([1]; vs saline grafted femurs, 6 weeks, not significant): 23% | torsional rigidity of grafted femurs ([1]; vs saline, 6 weeks): doubled | vessel volume within callus, more in saline treated than PTH treated specimens ([2]; 4 weeks): 74% | blood vessel diameter, greater in saline treated than PTH treated specimens ([2]; 4 weeks, p=0.05): 55% | blood vessel diameter, greater in saline treated than PTH treated specimens ([2]; 6 weeks): 78% | vessel volume within callus, more in saline treated than PTH treated specimens ([2]; 6 weeks): 88% | specimens in which the intramedullary blood vessel had bridged the length of the graft ([2]; by 6 weeks, saline 3 of 4): 4 of 4
